Assay results as given in patent EP0624368A2, “Use of a composition for stimulating the synthesis of glutathione in the manufacture of a medicament for the treatment of acquired immune deficiency syndrome” (priority 1993, dated 1994).

Assays:
mice [1] = assay: Bone marrow smear evaluation in treated mice
HIV-1 (strain IIIB) [2] = assay: HIV p24 antigen assay in PBMC (single and combination treatment); assay type: cell-based; conditions: 50 IU/well HIV
Text: (§1) Three cell culture systems were used in this study: H-9 cells; MT-2 cells; and normal human peripheral blood mononuclear cells (PBMC). H-9 cells were obtained from Advanced Biotechnology Inc. (ABI). MT-2 cells were obtained from Dr. J. Armstrong of the University of Pittsburgh. MT-2 cells are HTLV-I transformed human T lymphocytes and continuously produce HTLV-I virions. PBMC were obtained from healthy donors, purified by Ficol-Hypaque, and stimulated with PHA mitogen before being used in the efficacy studies. The initial stock of HIV-1 (strain IIIB) used in this study was obtained from ABI and the working stocks were produced.
(§2) Cells were collected, put into tissue culture plates and incubated with different concentrations of drugs in RPMI 1640 tissue culture medium for 20 minutes prior to HIV challenge. Infection was carried out by inoculating 20-100 HIV infectious units (IU)/well inoculum without removing the drugs. The untreated cells exposed to HIV challenge served as positive controls. The normal untreated uninfected cells served as negative controls.
(§3) When evaluating the efficacies of drugs in H-9 cells and PBMC systems, only HIV p24 assays were used. To calculate the ED₅₀ values, a second order linear regression was applied on the logarithm of the tested doses of different drugs against the OD readings obtained from either MTT assays or HIV p24 assays.
(§4) Cells were collected, put into tissue culture plates and incubated with different combinations of drugs for 20 minutes prior to HIV infection in the combined treatment studies. Infection was carried out by inoculating 20-100 HIV IU/well inoculum without removing the drugs. The inocula were the same as the ones used in the single drug treatment to obtain the ED₅₀ values. Both MTT assays and HIV p24 antigen assays were used in evaluation of drug effects in MT-2 cells but only HIV p24 antigen assays were used for H-9 cells or PBMC.
(§5) Therefore, if the CI is less than 1, it indicates synergism among the tested drugs. Similarly, if the CI is equal to 1, the effects are additive, while a CI value greater than 1 is indicative of an antagonistic effect.

HIV-1 (strain IIIB) [3] = assay: HIV p24 antigen assay in H-9 cells (single and combination treatment); assay type: cell-based; conditions: 80 IU/well HIV; for OD readings at 450 nm (HIV p24 antigen): H-9
Text: as §1, §2, §3, §4, §5

HIV-1 (strain IIIB) [4] = assay: MTT assay of protection against acute HIV infection in MT-2 cells; assay type: cell-based; conditions: 100 IU/well HIV; for OD readings at 540 nm (MTT assay): MT-2, Day 6 cultures; for Calculated single treatment ED50: MT-2 cells, MTT assay
Text: as §1, §2
(§6) Both the MTT assay and HIV p24 ELISA were used for evaluation of drug efficacies with MT-2 cells. The MTT assay is based upon the metabolic reduction of the MTT tetrazolium bromide dye in live cells. The OD readings (at 540 nm) obtained from the MTT assay are inversely correlated to the levels of cell mortality due to HIV infection or the cytotoxic effect of drugs. […] The HIV p24 antigen assay measures the level of HIV antigen present in the sample (i.e., culture supernatant).
as §3

mice [5] = assay: Hematology of terminal blood in mice treated with AZT with or without Procysteine diet; assay type: in vivo; conditions: both sexes, AZT 50 or 500 mg/kg body weight/day by gavage 14 days, 1.0% Procysteine® diet in combination groups, p<0.01
Protocol: On study day 17, the animals were anesthetized with methoxyflurane (in a bell jar). When deeply anesthetized, blood was obtained from the abdominal aorta and transferred for hematological analysis into tubes containing an K₂EDTA suspension.
The following assays were conducted. Leukocyte count Erythrocyte count Total hemoglobin concentration Hematocrit Mean corpuscular volume (MCV) Mean corpuscular hemoglobin (MCH) Mean corpuscular hemoglobin concentration Platelet count Reticulocyte count Differential leukocyte count

mice [6] = assay: Bone marrow aspirate count and stem cell colony assay in treated mice; assay type: in vivo
Protocol: Populations of bone marrow colony forming cells were evaluated. Bone marrow was collected and the stem cell assay conducted, as follows: one femur per mouse was cut at the distal and proximal ends. Using a syringe and 25 gauge needle, 5 mL of IMDM media was flushed through the femur into a collection tube (2.5 mL flushed into one end, then 2.5 ml into the other end). The tube was washed using Iscove's Modified Dulbecco's Media containing 20% fetal bovine serum and the cell concentration was adjusted to the desired count for the colony assay.
In triplicate, the marrow cells were put into a mixture of methylcellulose and plated into 35 mm diameter dishes. The dishes were incubated for approximately 2 weeks (37°C, 5% CO₂, 100% relative humidity) then manually scored under a microscope for myeloid, erythroid, and mixed colonies.

HIV-1 (strain IIIB) [7] = assay: HIV p24 antigen assay in MT-2 cells (single and combination treatment); assay type: cell-based; conditions: 20 IU/well HIV; for OD readings at 450 nm (HIV p24 antigen): MT-2
Text: as §1, §2, §6, §3, §4, §5

[8] = 10⁴ nucleated cells cultured 14 days

## Cc1cn([C@H]2C[C@H](N=[N+]=[N-])[C@@H](CO)O2)c(=O)[nH]c1=O [AZT]
Mice [1]; AZT 50 or 500 mg/kg body weight/day, 1.0% Procysteine® diet in combination groups
  total count of erythroid series cells in bone marrow smears: reduced total count
Mice [1]; AZT-treated
  metarubricytes (nonproliferating) in bone marrow smears: marked reduction
  rubriblasts in bone marrow smears: mild reduction
Mice [1]; bone marrow smears
  nonproliferating compartment of the myeloid series: reduction
  proliferating compartment of the myeloid series: significantly increased
HIV-1 (strain IIIB) [2]; 0.0025 μM
  OD readings at 450 nm (HIV p24 antigen): 3.405
HIV-1 (strain IIIB) [2]; 0.01 μM
  OD readings at 450 nm (HIV p24 antigen): 2.978
HIV-1 (strain IIIB) [2]; 0.04 μM
  OD readings at 450 nm (HIV p24 antigen): 0.155
HIV-1 (strain IIIB) [2]; 0.16 μM
  OD readings at 450 nm (HIV p24 antigen): 0.163
HIV-1 (strain IIIB) [2]; 0.64 μM
  OD readings at 450 nm (HIV p24 antigen): 0.204
HIV-1 (strain IIIB) [2]; p24 assay
  Calculated single treatment ED50: 0.021 µM
HIV-1 (strain IIIB) [3]; 0.0025 μM
  OD readings at 450 nm (HIV p24 antigen): 4.133
HIV-1 (strain IIIB) [3]; 0.01 μM
  OD readings at 450 nm (HIV p24 antigen): 4.133
HIV-1 (strain IIIB) [3]; 0.04 μM
  OD readings at 450 nm (HIV p24 antigen): 4.133
HIV-1 (strain IIIB) [3]; 0.16 μM
  OD readings at 450 nm (HIV p24 antigen): 3.815
HIV-1 (strain IIIB) [3]; 0.64 μM
  OD readings at 450 nm (HIV p24 antigen): 0.358
HIV-1 (strain IIIB) [4]; 0.0025 μM
  OD readings at 540 nm (MTT assay): 0.474
HIV-1 (strain IIIB) [4]; 0.01 μM
  OD readings at 540 nm (MTT assay): 0.641
HIV-1 (strain IIIB) [4]; 0.04 μM
  OD readings at 540 nm (MTT assay): 0.678
HIV-1 (strain IIIB) [4]; 0.16 μM
  OD readings at 540 nm (MTT assay): 0.688
HIV-1 (strain IIIB) [4]; 0.64 μM
  OD readings at 540 nm (MTT assay): 0.946
HIV-1 (strain IIIB) [4]
  Calculated single treatment ED50: 0.055 µM
Mice [5]
  hematological effects in terminal blood (hemoglobin, hematocrit, erythrocyte counts decreased; MCV, MCH increased): Anemia
Mice [6]; [8]
  burst forming units-erythroid for marrow cultures: No group differences
  total colonies and colony forming units-granulocyte/macrophage: significant induction
Mice [6]; AZT 50 or 500 mg/kg body weight/day, compared to controls
  nucleated cells in bone marrow aspirates: significant reduction

## O=c1[nH]cnc2c1ncn2[C@H]1CC[C@@H](CO)O1 [ddI]
HIV-1 (strain IIIB) [2]; 0.25 μM
  OD readings at 450 nm (HIV p24 antigen): 2.730
HIV-1 (strain IIIB) [2]; 1 μM
  OD readings at 450 nm (HIV p24 antigen): 2.658
HIV-1 (strain IIIB) [2]; 4 μM
  OD readings at 450 nm (HIV p24 antigen): 0.672
HIV-1 (strain IIIB) [2]; 16 μM
  OD readings at 450 nm (HIV p24 antigen): 0.212
HIV-1 (strain IIIB) [2]; 64 μM
  OD readings at 450 nm (HIV p24 antigen): 0.098
HIV-1 (strain IIIB) [3]; 0.25 μM
  OD readings at 450 nm (HIV p24 antigen): 3.984
HIV-1 (strain IIIB) [3]; 1 μM
  OD readings at 450 nm (HIV p24 antigen): 1.542
HIV-1 (strain IIIB) [3]; 4 μM
  OD readings at 450 nm (HIV p24 antigen): 0.772
HIV-1 (strain IIIB) [3]; 16 μM
  OD readings at 450 nm (HIV p24 antigen): 0.716
HIV-1 (strain IIIB) [3]; 64 μM
  OD readings at 450 nm (HIV p24 antigen): 0.329
HIV-1 (strain IIIB) [3]; H-9 cells, p24 assay
  Calculated single treatment ED50: 2.424 µM
HIV-1 (strain IIIB) [4]; 0.25 μM
  OD readings at 540 nm (MTT assay): 0.551
HIV-1 (strain IIIB) [4]; 1 μM
  OD readings at 540 nm (MTT assay): 0.603
HIV-1 (strain IIIB) [4]; 4 μM
  OD readings at 540 nm (MTT assay): 0.561
HIV-1 (strain IIIB) [4]; 16 μM
  OD readings at 540 nm (MTT assay): 0.880
HIV-1 (strain IIIB) [4]; 64 μM
  OD readings at 540 nm (MTT assay): 1.135
HIV-1 (strain IIIB) [4]
  Calculated single treatment ED50: 2.778 µM
HIV-1 (strain IIIB) [7]; 0.25 μM
  OD readings at 450 nm (HIV p24 antigen): 3.351
HIV-1 (strain IIIB) [7]; 1 μM
  OD readings at 450 nm (HIV p24 antigen): 3.025
HIV-1 (strain IIIB) [7]; 4 μM
  OD readings at 450 nm (HIV p24 antigen): 0.710
HIV-1 (strain IIIB) [7]; 16 μM
  OD readings at 450 nm (HIV p24 antigen): 1.167
HIV-1 (strain IIIB) [7]; 64 μM
  OD readings at 450 nm (HIV p24 antigen): 1.131
HIV-1 (strain IIIB) [7]; MT-2 cells, p24 assay
  Calculated single treatment ED50: 4.069 µM
